Series [1] deals with T1, Asparagine synthetase [glutamine-hydrolyzing] (Rattus norvegicus) (UniProt P49088).
T1 sequence (whole entry): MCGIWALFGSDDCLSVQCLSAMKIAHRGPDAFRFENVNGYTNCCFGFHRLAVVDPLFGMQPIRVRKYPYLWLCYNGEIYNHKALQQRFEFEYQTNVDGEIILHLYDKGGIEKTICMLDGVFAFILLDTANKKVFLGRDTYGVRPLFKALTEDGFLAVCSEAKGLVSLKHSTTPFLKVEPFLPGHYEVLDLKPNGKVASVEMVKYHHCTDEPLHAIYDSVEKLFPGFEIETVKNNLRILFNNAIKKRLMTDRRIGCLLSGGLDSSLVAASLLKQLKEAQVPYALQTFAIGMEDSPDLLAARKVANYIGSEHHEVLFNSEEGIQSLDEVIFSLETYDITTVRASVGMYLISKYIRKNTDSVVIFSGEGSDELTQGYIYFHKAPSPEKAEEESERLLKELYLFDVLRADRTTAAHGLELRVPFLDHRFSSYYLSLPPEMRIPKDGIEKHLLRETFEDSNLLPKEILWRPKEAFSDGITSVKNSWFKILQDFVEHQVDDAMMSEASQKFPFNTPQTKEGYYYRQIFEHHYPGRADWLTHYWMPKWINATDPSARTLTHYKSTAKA
The experiment in a line: Inhibition of asparagine synthetase in rat Novikoff hepatoma.

A further series concerns Mus musculus. The experiment in a line: Toxicity in mouse P388 cells allografted BDF1 mouse assessed as mortality at 200 mg/kg, ip qd for 9 days. Particulars: in vivo, 216 h. Details: dose 200 mg/kg, route intraperitoneal. The format is organism-based.
The subject of a further series is P388. The experiment in a line: Antitumor activity against mouse P388 cells allografted in BDF1 mouse assessed as increase of host survival time at 200 mg/kg, ip qd for 9 days. Format: functional.
The test system of the next series is L1210. Nature of the series: Antitumor activity against mouse L1210 cells allografted in BDF1 mouse assessed as increase of host survival time at 100 mg/kg, ip. Format: functional.

Calls of active or inactive are those of the source. The rule behind the calls is not given here.

Take `NC(=O)[C@H]1ONC(=O)[C@@H]1N` (relative stereo): the inhibition entry in series [1] was “inactive”. Besides, the Activity result with Mus musculus is “Non-toxic”. The result in the series with P388 and in the series with L1210 was inactive.
In the case of `O=C(NO)[C@H]1N[C@@H]1C(=O)NO` (relative stereo), the Activity entry in the series with Mus musculus is reported as “Non-toxic”; with L1210 (route intraperitoneal), 13%. Besides, the T/C with P388 (route intraperitoneal) was 128%.

What is called T/C is the ratio of treated to control.
